# Values of other authors as cited in patent US20190091195A1, “USE OF DIANHYDROGALACTITOL AND DERIVATIVES THEREOF IN THE TREATMENT OF GLIOBLASTOMA, LUNG CANCER, AND OVARIAN CANCER” (Del Mar Pharmaceuticals, priority 2015, published 2019).
# Columns and labels:
# [1] = cited from earlier work
# GSK-3β = GSK-3β (Homo sapiens, UniProt P49841); details: cited from earlier work
# GSK-3β, sequence (P49841 whole entry, species assumed): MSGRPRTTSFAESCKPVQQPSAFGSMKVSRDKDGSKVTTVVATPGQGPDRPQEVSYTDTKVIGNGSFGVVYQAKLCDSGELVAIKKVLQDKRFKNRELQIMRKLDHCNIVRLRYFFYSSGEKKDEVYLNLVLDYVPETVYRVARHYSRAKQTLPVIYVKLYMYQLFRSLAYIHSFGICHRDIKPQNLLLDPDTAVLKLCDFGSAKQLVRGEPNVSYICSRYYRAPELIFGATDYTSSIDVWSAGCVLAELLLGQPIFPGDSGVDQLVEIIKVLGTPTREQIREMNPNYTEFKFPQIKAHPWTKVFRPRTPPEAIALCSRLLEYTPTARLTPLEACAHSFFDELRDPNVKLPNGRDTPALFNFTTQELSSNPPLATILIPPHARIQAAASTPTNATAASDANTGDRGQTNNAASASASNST
Structure (SMILES),absorption by the oral route [1],concentration for inhibition of GSK-3β (GSK-3β) [nM]
O[C@H]([C@H](O)[C@@H](O)CBr)[C@H](O)CBr [dibromodulcitol],rapid and fairly complete,–
CN1C(=O)/C(=C2/C(=O)Nc3ccccc32)c2ccccc21 [Meisoindigo],–,5 to 50
